Tests used:
HeLa cells [1] = experiment: Western blot analyses of LC3 and p62; type: cell-based
Experimental: Western blot and Immunofluorescence staining analyses—Both assays were performed as described previously (Lu et al., 2013).

HeLa cells [2] = experiment: EGFR degradation assay; type: cell-based; conditions: HeLa cells treated with EGF
Experimental: (§1) Since the increase of lysosomal pH normally compromises the lysosomal activity, it was assessed whether vacuolin-1 affects the general lysosomal functions to inhibit autophagy maturation. […] Next, an epidermal growth factor receptor (EGFR) degradation assay was performed to examine whether vacuolin-1 affects the general endosomal-lysosomal pathway. In this assay, HeLa cells were treated with EGF in the presence or absence of vacuolin-1. After EGF binds to its receptors (EGFR), the receptor complex undergoes endocytosis and is targeted tolysosomes for degradation. […] Similarly, a DQ-BSA-green degradation assay was applied to measure the general endosomal-lysosomal degradation. DQ-BSA-green is a BSA labeled with a self-quenching fluorescent dye. After DQ-BSA-green is delivered to lysosomes via endocytosis, it is hydrolyzed into single dye-labeled peptides by lysosomal proteases, thereby relieving self-quenching and the fluorescence can subsequently be monitored by flow cytometry.

[3] = biological target: T1, V-ATPase (purified V1V0 holoenzyme) (Manduca sexta, UniProt P31400); experiment: In vitro V-ATPase assay; type: biochemical, M. sexta
T1 construct: Assays contained 3 μg of purified V1V0 holoenzyme; from tissue; host or cells: Fifth instar larvae of M. sexta; The midgut goblet cell apical membrane is named only in the title of the cited Wieczorek et al. 1990, not in the method text
Experimental: V-ATPase assay—Fifth instar larvae of M. sexta (Lepidoptera, Sphingidae), weighing 6-8 g, were reared under long day conditions (16 h of light) at 27° C. using the gypsy moth diet (MP Biomedicals, Germany). The purification of the V1VO holoenzyme was performed as previously described (Huss et al., 2002). Activity assays were performed in triplicate in a final volume of 160 μL and at a pH of 8.1. Assays contained 3 μg of purified V1V0 holoenzyme, 50 mM Tris-Mops, 3 mM 2-mercaptoethanol, 1 mM MgCl2, 20 mM KCl, 0.003% C12E10, 20 mM NaCl, and 3 mM Tris-HCl. After 10 min of preincubation at 30° C., with or without inhibitors, 1 mM Tris-ATP was added and after an incubation for 2 min at 30° C. the reaction was stopped by freezing the samples in liquid nitrogen. Inorganic phosphate was determined as previously described (Wieczorek et al., 1990).

CNE-1 and HONE-1 cells [4] = type: cell-based, human
Experimental: (§2) Although CQ has already been applied to treat a wide spectrum of human cancers, CQ induces ocular or renal toxicity and easily triggers drug resistance (Kimura et al., 2013). […] We first investigated the anti-tumor effects of vacuolin-1 in two nasopharyngeal carcinoma cell lines, CNE-1 and HONE-1. […] Alternatively, colony formation assay was performed to assess whether vacuolin-1 affects the ability of a single tumor cell to grow into a colony. […] We subsequently performed wound healing assay to assess whether vacuolin-1 affects the migration of tumor cells. […] Obviously, vacuolin-1 is an efficient anti-tumor agent in vitro.

[5] = test system: human lung cancer stem cells (hLCSCs); experiment: Cell proliferation of lung cancer stem cells; type: cell-based
Description: (§3) Cancer stem cells (CSCs), a subpopulation of cells within tumors, actually drive tumor growth and recurrence. CSCs are resistant to many current cancer treatments, including chemo- and radiation therapy, thus they can survive these therapy to regenerate new tumors. […] Therefore, it is of great interest to assess the anti-tumor effects of vacuolin-1 on CSCs.

[6] = test system: human lung cancer stem cells (hLCSCs); experiment: Tumor sphere formation of hLCSCs; type: cell-based; conditions: >10 μM
Description: as §3

HeLa cells [7] = experiment: Transmission electron microscopy of treated cells; type: cell-based
Experimental: Cell preparation for transmission electron microscopy (TEM)—Cell preparation for TEM was performed as described previously (Mi et al., 2007).

CNE-1 and HONE-1 cells [8] = experiment: Migration and invasiveness of nasopharyngeal carcinoma cells; type: cell-based, human
Experimental: as §2

HeLa cells [9] = experiment: DQ-BSA-green degradation assay (flow cytometry); type: cell-based; conditions: 1 μM
Experimental: as §1

human cancer cell lines = experiment: Combination with chemotherapy drugs in human cancer cell lines (FIG. 13); type: cell-based
[10] = test system: human lung cancer stem cells (hLCSCs); experiment: Colony formation of hLCSCs; type: cell-based; conditions: >10 μM
Description: as §3

HeLa cells [11] = experiment: Cathepsin L processing (western blot); type: cell-based; conditions: 1 μM
HeLa cells [12] = experiment: Lysosomal pH measurement (LysoSensor Green DND-189, LysoSensor Yellow/Blue DND-160); type: cell-based; conditions: 1 μM
Experimental: Lysosomal pH measurement—LysoSensor Green DND-189 is commonly used to measure the pH of acidic organelles, such as lysosomes, which become more fluorescent in acidic environments. Briefly, cells were loaded with 1 μMLysoSensor Green DND-189 in pre-warmed regular medium for 20 min at 37° C. Then the cells were washed twice with PBS and immediately analyzed by flow cytometry (collecting FL1 fluorescence and 10,000 cells were collected for each sample) or in a microplate reader (excitation/emission=485/530 nm).
Quantification of lysosomal pH was performed using a ratiometriclysosomal pH dye LysoSensor Yellow/Blue DND-160. The pH calibration curve was generated as described previously (Bankers-Fulbright et al., 2004). Briefly, cells were trypsinized and labeled with 2 μM Lysosensor Yellow/Blue DND-160 for 30 min at 37° C. in regular medium, and excessive dye was washed out using PBS. […] Quantitative comparisons were performed in a 96-well plate, and the fluorescence was measured with a microplate reader at 37° C. Light emitted at 440 and 535 nm in response to excitation at 340 and 380 nm were measured, respectively. The ratio of light emitted with 340 and 380 nm excitation was plotted against the pH values in IVIES buffer, and the pH calibration curve for the fluorescence probe was generated from the plot using Microsoft Excel.

T1 sequence (P31400 whole entry): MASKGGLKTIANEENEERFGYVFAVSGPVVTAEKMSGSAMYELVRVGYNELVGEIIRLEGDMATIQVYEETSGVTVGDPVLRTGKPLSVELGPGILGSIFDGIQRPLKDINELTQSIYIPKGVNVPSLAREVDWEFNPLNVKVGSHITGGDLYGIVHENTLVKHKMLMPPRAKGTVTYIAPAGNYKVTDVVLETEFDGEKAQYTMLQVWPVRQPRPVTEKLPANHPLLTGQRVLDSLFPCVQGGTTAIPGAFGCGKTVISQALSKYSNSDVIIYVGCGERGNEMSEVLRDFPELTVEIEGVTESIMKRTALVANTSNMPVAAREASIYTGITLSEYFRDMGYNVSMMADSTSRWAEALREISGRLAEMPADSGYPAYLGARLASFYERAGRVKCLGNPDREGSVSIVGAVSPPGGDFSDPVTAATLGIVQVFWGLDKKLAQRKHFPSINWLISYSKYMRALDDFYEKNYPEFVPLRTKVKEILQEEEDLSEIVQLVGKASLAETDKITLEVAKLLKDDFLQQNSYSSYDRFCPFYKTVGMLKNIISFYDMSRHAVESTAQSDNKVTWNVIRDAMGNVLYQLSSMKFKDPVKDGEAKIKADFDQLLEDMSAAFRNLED

Ic1cccc(/C=N/Nc2nc(N3CCOCC3)nc(N(c3ccccc3)c3ccccc3)n2)c1 [vacuolin-1]
fusion block between autophagosomes and lysosomes after removal of compound (reversibility) (HeLa cells [1]; 3 hours after removal from the medium, HeLa cells, 1 μM): completely relieved | potency in suppressing autophagy relative to CQ (HeLa cells [1]; HeLa and PC3 cells, 6 hours, LC3 and p62 western blot): at least ten times more potent than CQ | lipidated LC3-II level (HeLa cells [1]; HeLa cells, vacuolin-1 1 μM): markedly increased | p62 level (HeLa cells [1]; HeLa cells, vacuolin-1 1 μM): accumulated | EGF-triggered EGFR degradation (HeLa cells [2]): inhibited EGF-triggered EGFR degradation | V-ATPase activity in vitro [3]: little effects | cell toxicity, treatment alone (CNE-1 and HONE-1 cells [4]): little cell toxicity | synergistic effects on inhibiting tumor cell proliferation in combination with taxol, 5-FU, temsirolimus (CNE-1 and HONE-1 cells [4]): almost no synergistic effects | cell proliferation of hLCSCs [5]: did not affect the cell proliferation | tumor sphere formation of hLCSCs [6]: almost completely inhibited | autophagic vacuoles under the electron microscope (HeLa cells [7]; HeLa cells in normal culture conditions, 1 μM): large numbers of autophagic vacuoles were observed | lysosome morphology in electron micrograph (HeLa cells [7]; HeLa cells, versus control): enlarged lysosomes | migration (CNE-1 and HONE-1 cells [8]; FIG. 16D): markedly inhibited | invasiveness (CNE-1 and HONE-1 cells [8]; FIG. 16E): markedly inhibited | degradation of DQ-BSA-green by lysosomes (HeLa cells [9]): markedly inhibited the degradation of BSA | colony formation efficiency of cancer cells, combination with chemotherapy drugs (human cancer cell lines; FIG. 13B): greatly decreases | anti-tumor effects of chemotherapy drugs in combination (human cancer cell lines; human cancer cell lines, FIG. 13A): potently enhances | colony formation of hLCSCs [10]: almost completely inhibited | levels of immature form of cathepsin L (HeLa cells [11]): markedly increase | processing of cathepsin L into its mature form (HeLa cells [11]): not affected | lysosomal pH, qualitative (LysoSensor Green DND-189) (HeLa cells [12]): raised lysosomal pH | lysosomal pH, quantitative ratiometric (LysoSensor Yellow/Blue DND-160) (HeLa cells [12]; control cells pH 4.7): 5.2 pH
